Laboratory results published in patent EP0812829A1, “Substituted imidazoles as modulators of multi-drug resistance” (ONTOGEN CORPORATION, priority 1996, dated 1997).
Counter-ions that a name gives are not always drawn.

Assays:
[1] = system: CEM/VLB1000 Cells; assay: Enhancement of 3H-vinblastine accumulation; type: cell-based; settings: midpoint (EC50) of minimum and maximum increase in accumulation of 3H-vinblastine, 3H-vinblastine 550 nM, 3 hours at 37°C, read-out: [^3H]VLB Accumulation (µM) CEM/VLB1000 Cells
Method: Enhancement of ^3H-vinblastine accumulation was also measured in the cell line. Corning Easy-Wash 96 well plates were pretreated with PBS and 1% BSA for 60 minutes and then dried. CEM/VLB1000 cells were seeded at 2 x 10^5, 40 µL volume. Plates were incubated at 37°C for 30-60 minutes prior to use. The reference reversing agent, verapamil, or the compound of the present invention was added to the well followed by addition of media containing ^3H-vinblastine (final concentration = 550 nM). Plates were allowed to incubate for 3 hours at 37°C. Cells were harvested onto pretreated Wallace filtermats B (pretreated overnight with 0.1% polyethyleneimine) using a TomTek harvester-96. After filtering, the filtermats were allowed to dry completely. Meltix B scintillant was then added to the filtermats. The filters were then placed in a 90°C oven for approximately 3-5 minutes and then removed. Scintillant was allowed to solidify on the filtermats. Filtermats were then placed in sample bags and read on a Wallace BetaPlate scintillation counter. The effect of compounds of the present invention in the cytotoxicity potentiation assays and vinblastine (VLB) accumulation assay is given in the Table below: […]

[2] = system: CEM/VLB1000 Cells; assay: Cytotoxicity potentiation assay (alamar blue), vinblastine in CEM/VLB1000 cells; settings: read-out: Cytotoxicity Potentiation (µM) CEM/VLB1000 Cells; midpoint (EC50) of minimum and maximum cytotoxicity induced by 5 µg/mL vinblastine and compound; 48 hours incubation, alamar blue 24 hours
Method: Multidrug-resistant cell lines are easily obtainable for in vitro determination of drug sensitization by compounds of the present invention. In vitro potentiation of antineoplastic cytotoxicity by the imidazole derivatives of the present invention was measured in both CEM/VLB1000 and SK/VLB1000 cell lines. The multidrug resistant cell lines-were obtained from Dr. Victor Ling, Ontario Cancer Institute, Toronto, Canada. The CEM/VLB 1000 cell line was maintained as a suspension in minimum essential medium supplemented with 10% of fetal bovine serum in a humidied atmosphere of 95% air and 5% CO2 while the SK/VLB 1000 cell line was maintained as adherent cells using the identical medium conditions as the CEM cells. The CEM/VLB 1000 cells were seeded at a density of 5 x 10^4 cells/well in a 96 well microtiter plate while the SK/VLB 1000 cell line was seeded at a density of 2,500 cells/well after trypsinization. Vinblastine (5 µg/mL, for the CEM cells) or Taxol (3 µg/mL, for the SK cells) and compound (0.01 to 50 µM) were added directly to the wells. After an incubation of 48 hours in presence of drug, alamar blue (B. Page et al., Int. J. Oncol. 3: 473-476, 1993) was added (20 µL to the 200 µL cell suspension) for a period of 24 hours after which the fluorescence (excitation = […], emission = […]) was read for each well using a "CytoFluor" microtiter fluorometer plate reader. This assay measures the minimal concentration of compound necessary to enhance the cytotoxicity (EC50) of vinblastine in the MDR cell line.

[3] = system: SK/VLB1000 Cells; assay: Cytotoxicity potentiation assay (alamar blue), Taxol in SK/VLB1000 cells; type: cell-based; settings: midpoint (EC50) of minimum and maximum cytotoxicity; method: Taxol 3 µg/mL for the SK cells (footnote: 5 µg/mL vinblastine); 48 hours incubation, alamar blue 24 hours
Method: In vitro potentiation of antineoplastic cytotoxicity by the imidazole derivatives of the present invention was measured in both CEM/VLB1000 and SK/VLB1000 cell lines. The multidrug resistant cell lines-were obtained from Dr. Victor Ling, Ontario Cancer Institute, Toronto, Canada. The CEM/VLB 1000 cell line was maintained as a suspension in minimum essential medium supplemented with 10% of fetal bovine serum in a humidied atmosphere of 95% air and 5% CO2 while the SK/VLB 1000 cell line was maintained as adherent cells using the identical medium conditions as the CEM cells. The CEM/VLB 1000 cells were seeded at a density of 5 x 10^4 cells/well in a 96 well microtiter plate while the SK/VLB 1000 cell line was seeded at a density of 2,500 cells/well after trypsinization. Vinblastine (5 µg/mL, for the CEM cells) or Taxol (3 µg/mL, for the SK cells) and compound (0.01 to 50 µM) were added directly to the wells. After an incubation of 48 hours in presence of drug, alamar blue (B. Page et al., Int. J. Oncol. 3: 473-476, 1993) was added (20 µL to the 200 µL cell suspension) for a period of 24 hours after which the fluorescence (excitation = 530 nM, emission = 590 nM) was read for each well using a "CytoFluor" microtiter fluorometer plate reader. This assay measures the minimal concentration of compound necessary to enhance the cytotoxicity (EC50) of vinblastine in the MDR cell line.

Compound	EC50 [1] [µM]	EC50 [2] [µM]	EC50 [3] [µM]
Oc1ccc(-c2nc(-c3ccccc3)c(-c3ccccc3)n2-c2ccccc2)cc1 [Example 1, 2-(4-hydroxyphenyl)-1,4,5-triphenyl-imidazole trifluoroacetic acid salt]	20		
COc1ccc(-c2nc(-c3ccc(O)cc3)n(Cc3ccccc3)c2-c2ccc(OC)cc2)cc1 [Example 2, 1-benzyl-2-(4-hydroxyphenyl)-4,5-di-(4-methoxyphenyl)-imidazole trifluoroacetic acid salt]	2		
CN(C)c1ccc(-c2nc(-c3ccc(C(=O)O)cc3)[nH]c2-c2ccc(N(C)C)cc2)cc1 [Example 3, 2-(4-carboxyphenyl)-4,5-di-[4-(dimethylamino)-phenyl]-1(H)-imidazole]		10	
COC(=O)c1ccc(-c2nc(-c3ccc(N(C)C)cc3)c(-c3ccc(N(C)C)cc3)[nH]2)cc1 [Example 4, 4,5-di-[4-(dimethylamino)-phenyl]-2-[4-(methoxycarbonyl)-phenyl]-1(H)-imidazole]	5	0.3	1
CCCCCCn1c(-c2ccc(C(=O)O)cc2)nc(-c2ccc(N(C)C)cc2)c1-c1ccc(N(C)C)cc1 [Example 5, 2-(4-carboxyphenyl)-4,5-di-[4-(dimethylamino)-phenyl]-1-(n-hexyl)-imidazole]	12	3	10
CCCCCCn1c(-c2ccc(C(=O)OC)cc2)nc(-c2ccc(N(C)C)cc2)c1-c1ccc(N(C)C)cc1 [Example 6, 4,5-di-[4-(dimethylamino)-phenyl]-1-(n-hexyl)-2-[4-(methoxycarbonyl)-phenyl]-imidazole]		5	
CN(C)c1ccc(-c2nc(-c3ccc(/C=C/C(=O)O)cc3)[nH]c2-c2ccc(N(C)C)cc2)cc1 [Example 7, 2-[4-(trans-2-carboxyethenyl)-phenyl] -4,5-di-[4-(dimethylamino)-phenyl]-1(H)-imidazole]		10	
COC(=O)C=Cc1ccc(-c2nc(-c3ccc(N(C)C)cc3)c(-c3ccc(N(C)C)cc3)[nH]2)cc1 [Example 8, 4,5-di-[4-(dimethylamino)-phenyl]-2-{4-[trans-(2-methoxycarbonyl)-ethenyl]-phenyl}-1(H)-imidazole]	5	0.3	0.3
CN(C)c1ccc(-c2nc(-c3ccc(O)cc3)[nH]c2-c2ccc(N(C)C)cc2)cc1 [Example 9, 4,5-di-[4-(dimethylamino)-phenyl]-2-(4-hydroxyphenyl)-1(H)-imidazole]	20	10	10
CN(C)c1ccc(-c2nc(-c3ccc(O)cc3)n(CCc3ccccc3)c2-c2ccc(N(C)C)cc2)cc1 [Example 10, 4,5-di-[4-(dimethylamino)-phenyl]-2-(4-hydroxyphenyl)-1-(2-phenylethyl)-imidazole]	10	2	
CN(C)c1ccc(-c2nc(-c3ccc(C(=O)O)cc3)n(CCc3ccccc3)c2-c2ccc(N(C)C)cc2)cc1 [Example 11, 2-(4-carboxyphenyl)-4,5-di-[4-(dimethylamino)-phenyl]-1-(2-phenylethyl)-imidazole]		10	
CN(C)c1ccc(-c2nc(-c3ccc(/C=C/C(=O)O)cc3)n(CCc3ccccc3)c2-c2ccc(N(C)C)cc2)cc1 [Example 12, 2-[4-(trans-2-carboxyethenyl)-phenyl]-4,5-di-[4-(dimethylamino)-phenyl]-1-(2-phenylethyl)-imidazole]		10	
COC(=O)/C=C/c1ccc(-c2nc(-c3ccc(OC)cc3)c(-c3ccc(OC)cc3)n2CCCCCC(=O)OC)cc1 [Example 13, 4,5-di-(4-methoxyphenyl)-2-{4-[trans-(2-methoxycarbonyl)-ethenyl]-phenyl}-1-[5-(methoxycarbonyl)-n-pentyl)-imidazole]		0.6	
COc1ccc(-c2nc(-c3ccc(/C=C/c4ccccc4)cc3)n(CCCn3ccnc3)c2-c2ccc(OC)cc2)cc1 [Example 14, 2-(trans-4-stilbenyl)-1-[3-(imidazol-1-yl)-n-propyl]-4,5-di-(4-methoxyphenyl)-imidazole]		0.4	1
COC(=O)/C=C/c1ccc(-c2nc(-c3ccc(N(C)C)cc3)c(-c3ccc(N(C)C)cc3)n2CCCCCC(=O)OC)cc1 [Example 15, 4,5-di-[4-(dimethylamino)-phenyl]-2-{4-[trans-(2-methoxycarbonyl)-ethenyl]-phenyl}-1-[5-(methoxycarbonyl)-n-pentyl-]-imidazole]		0.6	5
CCCCCCn1c(-c2ccc(OCCCN(C)C)cc2)nc(-c2ccc(OC)cc2)c1-c1ccc(OC)cc1 [Example 16, 4,5-di-(4-methoxyphenyl)-2-{4-[3-(dimethylamino)-propyloxy]-phenyl}-1-(n-hexyl)-imidazole]		2	10
